Laboratory results: publication PMC8192908 (Scientific Reports, 2021)
Values joined by “and” are separate entries in the source; they are usually repeats but may differ in a detail not shown here. Equal entries are not always repeated.

Target: T1, PDE10A (Homo sapiens, UniProt Q9Y233)
T1 construct: Catalytic domain of each protein was cloned between BamHI and XhoI restriction sites in; 6xHis-SUMO (N, cleaved yes); made in house; host or cells: E. coli Rosetta 2 (DE3)
Assay: ITC binding of PTX to the catalytic domain of PDE10A
Excerpt: Supplementary Materials and Methods
Cloning, expression and purification of catalytic domains of PDE4A, […]
The full length human PDE4A (1005 bp), PDE4D (981 bp) and PDE10A (957 bp) cDNAs, cloned in pET28a(+) expression vector, were purchased from Biomatik, Canada.
Catalytic domain of each protein was cloned between BamHI and XhoI restriction sites in 6x-His-SUMO-tagged bacterial expression vector. The catalytic domain constructs of PDE4A, PDE4D and PDE10A were transformed in E. coli Rosetta 2 (DE3) competent cells for expression. After growing the transformed cells at 37 °C, till the OD 600nm reached 0.5-0.7, the culture containing constructs of PDE4A and PDE4D were induced with 0.1 mM IPTG and the cultures were incubated at 15 °C for 16-18 h, whereas those with PDE10A constructs were induced with 0.5 mM at incubated for 35 -40 h followed by cell harvesting. Harvested cells were suspended in lysis buffer (500 mM NaCl, 50 mM Tris - Cl pH 8.0, 10 mM Imidazole, 3 mM β-mercaptoethanol) and lysed by sonication (Qsonica). The lysates were cleared by centrifugation at 20,000g for 1h and supernatant was passed through Ni-NTA affinity column (His-Trap, GE Healthcare). Eluted proteins were subjected to salt exchange with a buffer containing 100 mM NaCl, 50 mM Tris-Cl pH 8.0, 3 mM β-mercaptoethanol. The collected proteins were further purified using ion - exchange chromatography (Q column, Hi-Trap, GE Healthcare) followed by overnight treatment with ULP1 at 4 °C to cleave 6xHis-SUMO tag. The tag was separated from proteins by a subsequent Ni-NTA purification. The proteins were further purified on size exclusion 16/600 200 pg column (GE Healthcare) pre-equilibrated with a buffer (100 mM […]
NaCl, 50 mM Tris pH 8.0, 5% Glycerol, 3 mM β-mercaptoethanol). After purifying with a gel filtration column, purity was determined on 12% SDS -PAGE and all three proteins were more than 95% pure (Supplementary Figure S10). Purified proteins were concentrated to 20mg/ml, flash cooled with liquid nitrogen and stored at -80°C.
Isothermal titration calorimetry (ITC) binding studies
The equilibrium molar dissociation constant (Kd), stoichiometry (N) and […]
of PDE4A, PDE4D and PDE10A were determined at 25°C, using Affinity ITC (TA instruments). Protein and ligand solutions for titration were prepared in the same buffer.
The reference cell was filled with a distilled water and the sample cell was filled with 350 […]
μL of either PDE4A or PDE4D or PDE10A (75-500 µM). […]
sequentially injected in 2 μL per injection (for a total 20 injections), at a regular interval of 120-150s, while stirring at 125 rpm. The ITC generated data were processed using NanoAnalyze software (TA Instruments). The ITC data was deconvoluted with the “independent” curve fitting model using a nonlinear least-squares algorithm. […]

T1 sequence (Q9Y233 718-1035 limits assumed): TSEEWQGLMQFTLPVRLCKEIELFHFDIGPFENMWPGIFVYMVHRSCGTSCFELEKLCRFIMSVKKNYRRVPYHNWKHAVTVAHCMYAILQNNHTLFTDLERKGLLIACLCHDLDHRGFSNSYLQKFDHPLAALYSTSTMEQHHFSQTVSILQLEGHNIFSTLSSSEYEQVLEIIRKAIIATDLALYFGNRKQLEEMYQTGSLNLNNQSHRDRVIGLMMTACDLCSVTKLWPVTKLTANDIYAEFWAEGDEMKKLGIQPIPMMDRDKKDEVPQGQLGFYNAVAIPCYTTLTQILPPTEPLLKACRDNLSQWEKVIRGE

CC(=O)CCCCn1c(=O)c2c(ncn2C)n(C)c1=O [PTX, pentoxifylline]
change in enthalpy (ΔH): ~ -8.25±0.04 kcal/mol | change in entropy (ΔS): ~ -7.8 cal/mol.K | stoichiometry (N): ~ 1.03±0.04 | Kd (25°C, read-out: molar dissociation constant (Kd)): 44 µM and ~44 µM
